The results in this text go back to patent publication US10370371B2, “Substituted pyrimidine Bmi-1 inhibitors” (PTC Therapeutics, Inc., priority 2013, dated 2019).

One may read the EC50 as the concentration at which the effect is half-maximal. Higher therefore signals weaker potency.

The assay deals with Bmi-1 protein. Kind of assay: Sandwich ELISA Assay (Bmi-1 protein level in HT-1080 cells). Format: cell-based. On the procedure: Cell Seeding and Compound Treatment (Day 1):
HT-1080 cells were seeded at 8000 cells/well (50 μL) in 96-well tissue culture plates. After the cells became adherent (3-4 hours), 2× diluted stocks of test compounds in 50 μL DMEM containing 1% DMSO (final DMSO concentration was 0.5%) were added and the plates were incubated at 37° C. under 5% CO2 for 40-48 hours.
ELISA Plate First Antibody Preparation (Day 2):
The First Antibody (Millipore Mouse, monoclonal to mouse Bmi-1, clone F6, catalog #05-637) diluted to 2 μg/mL in PBS was added (100 μL) to each well of a Nunc MaxiSorp 96-well ELISA plate. The plate was covered with a plate seal and allowed to stand overnight.
Cell Lysate Preparation (Day 3):
Fresh Lysis buffer (1×) was prepared on the day of the assay as follows: 1 mM EDTA, 150 mM NaCl, 0.5% Triton-X 100, 10 mM NaF, 20 mM B-Glycerophosphate, 1 mM DTT (in PBS, pH 7.2-7.4) and HALT protease inhibitor cocktail (1×) (Pierce #78410).
Lysis Buffer (1×, 40 μL) was added to each well and the plate was shaken for 5-10 minutes on an orbital shaker to allow cell lysis, then diluent (1% BSA in PBS in 0.5% NP40) (100 μL) was added to each well.
A standard curve was prepared at the following Bmi-1 concentrations: 8000, 4000, 2000, 1000, 500, 250, 125 and 0 pg/mL. The Bmi-1 Recombinant Protein Standard (Novus Biologicals PCGF4 Recombinant Protein (P01), catalog # H00000648-P01) used to prepare the standard curve was stored at −80° C. On first thaw, the Recombinant Protein Standard was diluted to 10 μg/μL in Blocking Buffer (1% BSA in PBS; BSA: Fisher Scientific Catalog #1600-100). Aliquots were taken and refrozen at −80° C. The aliquots may be kept at 4° C. and reused after first thaw, but only within 1-2 weeks. The Recombinant Protein Standard contains a GST-fusion tag that appears at approximately 70 Kda on Western Blot.
The prepared ELISA plate was washed 3× with Wash Buffer (0.05% Tween-20 in PBS). The final wash was removed from the plate and the plate was blotted dry. Blocking Buffer (300 μL) (1% BSA in PBS) was added to each well. The plate was covered with a plate seal and incubated at room temperature for 1 hour. The blocked plate was washed 3× with Wash Buffer, then the final wash was removed and the plate was blotted dry. The previously prepared samples and standards were added (100 μL/well) and the plate was covered with a plate seal and incubated at 4° C. overnight.
The prepared ELISA plate was removed from incubation and allowed to stand at room temperature for 30 minutes, then washed and blotted dry. The Second Antibody (Cell Signaling Rabbit anti-Bmi-1, Cat#2830) diluted to 1:600 in Blocking Buffer was added (100 μL) to each well, except as needed for background control wells. The plate was covered with a plate seal and incubated for 1.5 hrs at room temperature.
The ELISA plate was washed and blotted dry as previously described. The Third Antibody (Cell Signaling HRP conjugated anti-rabbit IgG (CellSignaling, Cat#:7074) diluted to 1:300 in Blocking Buffer was added (100 μL) to each well, except as needed for background control wells. The plate was incubated for 1 hr at room temperature.
The plate was washed and blotted dry, then a previously prepared TMB substrate (TMB substrate kit, Pierce catalog #34021) (prepared by mixing kit reagents 1:1) (100 μL) was added per well. The plate was incubated for 20-30 minutes at room temperature in the dark, then Stop Solution (2 M sulfuric acid in water) (50 μL) was added per well. The plates were read at OD450 (experimental) and OD570 (reference).
(ELISA stands for enzyme-linked immunosorbent assay.)

`Cc1nc2ncc(Cl)cc2n1-c1cc(N)nc(Nc2ccc(C(F)(F)F)cc2)n1` [Cpd 31, 6-(6-chloro-2-methyl-1H-imidazo[4,5-b]pyridin-1-yl)-N^2-[4-(trifluoromethyl)phenyl]pyrimidine-2,4-diamine] yielded a concentration for a half-maximal effect (EC50) of 1 to 10 nM.
`CCc1nc2ncc(Cl)cc2n1-c1cc(N)nc(Nc2ccc(C(F)(F)F)cc2)n1` [Cpd 32, 6-(6-chloro-2-ethyl-1H-imidazo[4,5-b]pyridin-1-yl)-N^2-[4-(trifluoromethyl)phenyl]pyrimidine-2,4-diamine] had a 50% effective concentration (EC50) of 10 to 100 nM.
For `Cc1nc2c(F)cc(F)cc2n1-c1cc(N)nc(Nc2ccc(C(F)(F)F)cc2)n1` [Cpd 34, 6-(4,6-difluoro-2-methyl-1H-benzimidazol-1-yl)-N^2-[4-(trifluoromethyl)phenyl]pyrimidine-2,4-diamine], the concentration giving a half-maximal response (EC50) was in the range of 10 to 100 nM.
Regarding `Cc1nc2c(F)cccc2n1-c1cc(N)nc(Nc2ccc(C(F)(F)F)cc2)n1` [Cpd 35, 6-(4-fluoro-2-methyl-1H-benzimidazol-1-yl)-N^2-[4-(trifluoromethyl)phenyl]pyrimidine-2,4-diamine], the EC50 was in the range of 10 to 100 nM.
Then `Cc1nc2ccccc2n1-c1cc(Cl)nc(Nc2ccc(C(F)(F)F)nc2)n1` [Cpd 36, 4-chloro-6-(2-methyl-1H-benzimidazol-1-yl)-N-[6-(trifluoromethyl)pyridin-3-yl]pyrimidin-2-amine], with 100 to 3000 nM.
Molecule `Cc1nc2ccccc2n1-c1cc(N)nc(Nc2ccc(C(F)(F)F)nc2)n1` [Cpd 37, 6-(2-methyl-1H-benzimidazol-1-yl)-N^2-[6-(trifluoromethyl)pyridin-3-yl]pyrimidine-2,4-diamine] registered a concentration giving a half-maximal response (EC50) of 10 to 100 nM.
In turn, `Cc1nc2ccc(F)cc2n1-c1cc(Cl)nc(Nc2ccc(C(F)(F)F)nc2)n1` [Cpd 38, 4-chloro-6-(6-fluoro-2-methyl-1H-benzimidazol-1-yl)-N-[6-(trifluoromethyl)pyridin-3-yl]pyrimidin-2-amine] had a half-maximal effective concentration (EC50) of 100 to 3000 nM.
In turn, `Cc1nc2cc(F)ccc2n1-c1cc(N)nc(Nc2ccc(C(F)(F)F)nc2)n1` [Cpd 39, 6-(5-fluoro-2-methyl-1H-benzimidazol-1-yl)-N^2-[6-(trifluoromethyl)pyridin-3-yl]pyrimidine-2,4-diamine] returned an EC50 of 10 to 100 nM.
As to `Cc1nc2ccc(F)cc2n1-c1cc(N)nc(Nc2ccc(C(F)(F)F)nc2)n1` [Cpd 40, 6-(6-fluoro-2-methyl-1H-benzimidazol-1-yl)-N^2-[6-(trifluoromethyl)pyridin-3-yl]pyrimidine-2,4-diamine], the EC50 was 10 to 100 nM.
Molecule `Cc1nc2ccc(Br)cc2n1-c1cc(N)nc(Nc2ccc(C(F)(F)F)cc2)n1` [Cpd 41, 6-(6-bromo-2-methyl-1H-benzimidazol-1-yl)-N^2-[4-(trifluoromethyl)phenyl]pyrimidine-2,4-diamine] returned an EC50 of 10 to 100 nM.
Then `Cc1ccc2nc(C)n(-c3cc(N)nc(Nc4ccc(C(F)(F)F)cc4)n3)c2c1` [Cpd 42, 6-(2,6-dimethyl-1H-benzimidazol-1-yl)-N^2-[4-(trifluoromethyl)phenyl]pyrimidine-2,4-diamine], with 10 to 100 nM.
`CCc1nc2cc(F)ccc2n1-c1cc(N)nc(Nc2ccc(C(F)(F)F)nc2)n1` [Cpd 43, 6-(2-ethyl-5-fluoro-1-benzimidazol-1-yl)-N^2-[6-(trifluoromethyl)pyridin-3-yl]pyrimidine-2,4-diamine]: the EC50 lay within 10 to 100 nM.
For `CCc1nc2ccc(F)cc2n1-c1cc(N)nc(Nc2ccc(C(F)(F)F)nc2)n1` [Cpd 44, 6-(2-ethyl-6-fluoro-1H-benzimidazol-1-yl)-N^2-[6-(trifluoromethyl)pyridin-3-yl]pyrimidine-2,4-diamine], the EC50 fell in the range of 10 to 100 nM.
The molecule `Cc1nc2ccc(Cl)cc2n1-c1cc(N)nc(Nc2ccc(C(F)(F)F)cc2)n1` [Cpd 45, 6-(6-chloro-2-methyl-1H-benzimidazol-1-yl)-N^2-[4-(trifluoromethyl)phenyl]pyrimidine-2,4-diamine] registered an EC50 of 10 to 100 nM.
Then `Cc1nc2ccc(Cl)cc2n1-c1cc(O)nc(Nc2ccc(C(F)(F)F)cc2)n1` [Cpd 46, 6-(6-chloro-2-methyl-1H-benzimidazol-1-yl)-2-{[4-(trifluoromethyl)phenyl]amino}pyrimidin-4-ol], with 100 to 3000 nM; and `Cc1nc2cc(Cl)ccc2n1-c1cc(N)nc(Nc2ccc(C(F)(F)F)cc2)n1` [Cpd 47, 6-(5-chloro-2-methyl-1H-benzimidazol-1-yl)-N^2-[4-(trifluoromethyl)phenyl]pyrimidine-2,4-diamine], with 100 to 3000 nM; and `Cc1nc2ncc(F)cn2c1-c1cc(N)nc(Nc2ccc(C(F)(F)F)cc2)n1` [Cpd 48, 6-(6-fluoro-2-methylimidazo[1,2-a]pyrimidin-3-yl)-N^2-[4-(trifluoromethyl)phenyl]pyrimidine-2,4-diamine], with 10 to 100 nM.
`Cc1nc2cc(F)cc(F)c2n1-c1cc(N)nc(Nc2ccc(OC(F)F)cc2)n1` [Cpd 49, N^2-[4-(difluoromethoxy)phenyl]-6-(5,7-difluoro-2-methyl-1H-benzimidazol-1-yl)pyrimidine-2,4-diamine] registered a 50% effective concentration (EC50) of 100 to 3000 nM.
Consider `Nc1cc(-c2c(C(F)(F)F)nc3ccc(F)cn23)nc(Nc2ccc(C(F)(F)F)cc2)n1` [Cpd 50, 6-[6-fluoro-2-(trifluoromethyl)imidazo[1,2-a]pyridin-3-yl]-N^2-[4-(trifluoromethyl)phenyl]pyrimidine-2,4-diamine], for which the concentration giving a half-maximal response (EC50) is 10 to 100 nM.
`Cc1nc2c(F)cccc2n1-c1cc(N)nc(Nc2ccc(OC(F)F)cc2)n1` [Cpd 51, N^2-[4-(difluoromethoxy)phenyl]-6-(4-fluoro-2-methyl-1H-benzimidazol-1-yl)pyrimidine-2,4-diamine]: the EC50 is 10 to 100 nM.
For the molecule `Cc1cc(Nc2nc(N)cc(-n3c(C)nc4c(F)cccc43)n2)ccc1C(F)(F)F` [Cpd 52, 6-(4-fluoro-2-methyl-1H-benzimidazol-1-yl)-N^2-[3-methyl-4-(trifluoromethyl)phenyl]pyrimidine-2,4-diamine], the EC50 fell in the range of 100 to 3000 nM.
As to `Cc1ccc2nc(C)n(-c3cc(N)nc(Nc4ccc(C(F)(F)F)c(C)c4)n3)c2c1` [Cpd 53, 6-(2,6-dimethyl-1H-benzimidazol-1-yl)-N^2-[3-methyl-4-(trifluoromethyl)phenyl]pyrimidine-2,4-diamine], the EC50 is 10 to 100 nM.
Then `Cc1ccc2nc(C)n(-c3cc(N)nc(Nc4ccc(OC(F)F)cc4)n3)c2c1` [Cpd 54, N^2-[4-(difluoromethoxy)phenyl]-6-(2,6-dimethyl-1H-benzimidazol-1-yl)pyrimidine-2,4-diamine], with 1 to 10 nM.
`Nc1cc(-c2c(C(F)(F)F)nc3ccc(F)cn23)nc(Nc2ccc(OC(F)F)cc2)n1` [Cpd 55, N^2-[4-(difluoromethoxy)phenyl]-6-[6-fluoro-2-(trifluoromethyl)imidazo[1,2-a]pyridin-3-yl]pyrimidine-2,4-diamine] had an EC50 of 10 to 100 nM.
Then `Cc1nc2ccccc2n1-c1nc(Nc2ccc(C(F)(F)F)cc2)nc(N)c1F` [Cpd 56, 5-fluoro-6-(2-methyl-1H-benzimidazol-1-yl)-N^2-[4-(trifluoromethyl)phenyl]pyrimidine-2,4-diamine], with 100 to 3000 nM; and `CCc1nc2ccccc2n1-c1nc(Nc2ccc(C(F)(F)F)cc2)nc(N)c1F` [Cpd 57, 6-(2-ethyl-1H-benzimidazol-1-yl)-5-fluoro-N^2-[4-(trifluoromethyl)phenyl]pyrimidine-2,4-diamine], with 10 to 100 nM; and `Cc1nc2ccc(F)cc2n1-c1nc(Nc2ccc(C(F)(F)F)cc2)nc(N)c1F` [Cpd 58, 5-fluoro-6-(6-fluoro-2-methyl-1H-benzimidazol-1-yl)-N^2-[4-(trifluoromethyl)phenyl]pyrimidine-2,4-diamine], with 100 to 3000 nM.
